In PubChem BioAssay (NCI):
Values joined by “and” are separate entries in the source; they are usually repeats but may differ in a detail not shown here. Identical values can stand only once.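 Results reflect a 48-hour exposure of cells in 96-well plates to compound at five concentrations. GI50: concentration for 50% inhibition of growth. TGI: total growth inhibition.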

Columns and labels:
Assay in all cases: NCI-60 cell line screen, 48 h
K-562 leukemia = system: K-562 leukemia
CCRF-CEM leukemia = system: CCRF-CEM leukemia
HOP-62 NSCLC = system: HOP-62 NSCLC
MCF7 breast = system: MCF7 breast
MALME-3M melanoma = system: MALME-3M melanoma
OVCAR-4 ovarian = system: OVCAR-4 ovarian
RPMI-8226 leukemia = system: RPMI-8226 leukemia
KM12 colon = system: KM12 colon
UACC-257 melanoma = system: UACC-257 melanoma
RXF 393 renal = system: RXF 393 renal

Structure (SMILES)	GI50 (K-562 leukemia)	TGI (K-562 leukemia)	GI50 (CCRF-CEM leukemia)	TGI (CCRF-CEM leukemia)	GI50 (HOP-62 NSCLC)	TGI (HOP-62 NSCLC)	GI50 (MCF7 breast)	TGI (MCF7 breast)	GI50 (MALME-3M melanoma)	TGI (MALME-3M melanoma)	GI50 (OVCAR-4 ovarian)	TGI (OVCAR-4 ovarian)	GI50 (RPMI-8226 leukemia)	TGI (RPMI-8226 leukemia)	GI50 (KM12 colon)	TGI (KM12 colon)	GI50 (UACC-257 melanoma)	TGI (UACC-257 melanoma)	GI50 (RXF 393 renal)	TGI (RXF 393 renal)
Cn1c2ccccc2c2c(=O)n(CCCC(=O)NCCc3cnc[nH]3)c3c(-c4ccccc4)nnn3c21	8.9 µM	27 µM	1.51 µM	> 50 µM	7.67 µM	16.9 µM	13 µM	30.3 µM	7.55 µM	16.7 µM	10.1 µM	20.5 µM	10.5 µM	28.6 µM	8.16 µM	16.9 µM	12 µM	21.6 µM	7.41 µM	18.2 µM
CCCCCCCCCCCCSC1=CC(=O)C=CC1=O	6.44 µM	> 36.9 µM	0.143 µM	4.17 µM	9.23 µM	> 35 µM	2.22 µM	> 50 µM	13.1 µM	> 50 µM	2.17 µM	9 µM	0.804 µM	3.46 µM	1.92 µM	8.37 µM	4.01 µM	15.9 µM	2.86 µM	19.3 µM
CC(C)c1ccc(C(c2c(O)c3ccccc3oc2=O)c2c(O)c3ccccc3oc2=O)cc1	–	51.4 µM	–	36.2 µM	–	50.5 µM	–	86 µM	–	38.4 µM	–	94 µM	–	45.9 µM	–	40.4 µM	–	53 µM	–	48.1 µM
Cl.[O-]c1cccc2cccnc12.[O-]c1cccc2cccnc12.[O-]c1cccc2cccnc12.[O-]c1cccc2cccnc12.[Ti+4]	0.303 µM	–	0.291 µM	–	4.7 µM	59.6 µM	0.955 µM	> 100 µM	1.91 µM	> 40.2 µM	0.959 µM	–	–	2.67 µM	2.28 µM	8.04 µM	0.712 µM	> 35.1 µM	0.319 µM	2.13 µM
Cc1cc(C(=O)CC(Cl)=C(Cl)Cl)c(Cl)cc1Cl	20.7 µM	47.6 µM	3.54 µM	27.3 µM	21.2 µM	44.1 µM	29.1 µM	> 100 µM	14.3 µM	34.5 µM	27.6 µM	72.3 µM	16.6 µM	40.8 µM	18.2 µM	42.1 µM	19.5 µM	44.9 µM	17.8 µM	43.1 µM
COC1/C=C/OC2(C)Oc3c(C)c(O)c4c(O)c(c(/C=N/N(c5ccccc5)c5ccccc5)c(O)c4c3C2=O)NC(=O)C(C)=C/C=C/C(C)C(O)C(C)C(O)C(C)C(OC(C)=O)C1C (stereo not given)	1.59 µM	5.69 µM	1.58 µM	6.62 µM	3.41 µM	10.3 µM	1.62 µM	6.58 µM	1.83 µM	9.36 µM	1.95 µM	7.6 µM	1.16 µM	4.42 µM	1.65 µM	6.45 µM	1.48 µM	5.44 µM	0.963 µM	1.93 µM
CN(CO)c1nc(N(C)CO)nc(N(C)CO)n1	27.2 µM	140 µM	25.5 µM	73.6 µM	42.6 µM	> 90.7 µM and 56.7 µM	32 µM	99.1 µM and 56.4 µM	17.5 µM	34.2 µM and 26.1 µM	18.9 µM and 23.8 µM	39.1 µM and 55.6 µM	27.5 µM	> 91.4 µM and 43.4 µM	–	47.7 µM and 31.8 µM	20.6 µM and 21.8 µM	40.7 µM and 44.4 µM	18 µM	34.1 µM and 22.9 µM
Cc1cc2oc(=O)cc(OC/C=C3/CCC(=O)O3)c2cc1C	8.23 µM	34.1 µM	2.33 µM	7.25 µM	12.1 µM	26.4 µM	2.25 µM	12.6 µM	2.39 µM	7.62 µM	2.56 µM	13.7 µM	0.512 µM	4.01 µM	3.31 µM	18 µM	12.3 µM	26.4 µM	1.83 µM	9.81 µM
CCCn1cc(/C=N\N=C2\C(=O)Nc3ccc(C)cc32)c2ccccc21	2.22 µM	20.5 µM	1.94 µM	> 100 µM	4.17 µM	25 µM	1.54 µM	15.5 µM	1.88 µM	6.03 µM	0.935 µM	25.6 µM	1.33 µM	3.96 µM	3.22 µM	19.7 µM	12.3 µM	66.6 µM	2.17 µM	7.94 µM
CCc1nc(N)nc(N)c1-c1ccc(N(C)Cc2ccccc2)c([N+](=O)[O-])c1	–	3.98 µM	–	12.7 µM	–	14.3 µM	–	15.9 µM	–	17.1 µM	–	52.1 µM	–	4.13 µM	–	16.3 µM	–	14.2 µM	–	22.9 µM
O=C(O)C1C2C=CC(O2)C1C(=O)NCc1ccncc1 (stereo not given)	–	> 100 µM	–	> 100 µM	–	> 100 µM	–	> 100 µM	–	> 100 µM	–	> 100 µM	–	> 100 µM	–	> 100 µM	–	> 100 µM	–	> 100 µM
COc1ccc2[nH]cc(C3(c4c[nH]c5ccc(OC)cc45)C(=O)Nc4ccc(Cl)cc43)c2c1	3.69 µM	> 100 µM	3.67 µM	> 100 µM	5.18 µM	21.3 µM	3.12 µM	42.8 µM	5.02 µM	46.5 µM	3.67 µM	30.5 µM	6.51 µM	> 100 µM	2.52 µM	6.33 µM	2.84 µM	> 100 µM	3.4 µM	13.6 µM
O=[N+]([O-])c1cc(C(F)(F)F)cc2n[se]nc12	–	5.14 µM	–	10.8 µM	–	29.8 µM	–	4.07 µM	–	3.57 µM	–	3.84 µM	–	2.89 µM	–	20.3 µM	–	4.56 µM	–	4.91 µM
O=c1oc2ccc(I)cc2c(=O)n1-c1ccc(I)cc1F	0.436 µM	> 100 µM	1.89 µM	10.8 µM	2.36 µM	9.46 µM	1.08 µM	11.3 µM	0.36 µM	2.54 µM	0.349 µM	18.4 µM	0.366 µM	1.99 µM	2.2 µM	5.23 µM	0.522 µM	5.6 µM	0.861 µM	4.16 µM
Cc1cnc(-c2ccc(-c3ccc(NC(=O)Nc4cccc(C(F)(F)F)c4)cc3F)c3c2C(=O)NC3)[nH]1	1.43 µM	31.9 µM	1.31 µM	18.7 µM	3.55 µM	> 50 µM	2.04 µM	25.3 µM	1.47 µM	23.1 µM	8.96 µM	23.8 µM	10.7 µM	52.3 µM	< 0.01 µM	16.2 µM	13.5 µM	> 66 µM	2.42 µM	21.3 µM
N#Cc1ccc(O)c(C2=NCC(c3ccc(-c4ccccc4)cc3)O2)c1 (stereo not given)	0.338 µM	> 100 µM	0.264 µM	> 100 µM	0.41 µM	10.9 µM	0.343 µM	11.8 µM	1.71 µM	14.3 µM	0.32 µM	10.1 µM	0.416 µM	> 100 µM	0.462 µM	28.7 µM	1.15 µM	7.96 µM	0.487 µM	5.55 µM
